Tests used:
B16F10 melanoma = experiment: Subcutaneous B16F10 melanoma tumor growth in vivo; parameters: species or system mouse
Method: Mice used were 7-12 weeks old. […] B16F10 and […] (Ovalbumin-expressing B16F10 cells, gift from C. Reis e Sousa) tumor cells were cultured in DMEM (Gibco) supplemented with 10% FCS (PAA), 0.1 mM non-essential amino acids, 1 mM sodium pyruvate, 10 mM Hepes, 70 μM beta-mercaptoethanol and 23 μg/ml gentamycin (all from Gibco). CT26 colon carcinoma cells were cultured in RPMI (Gibco) supplemented as described for DMEM. Cells for injections were passaged 1-2 times after thawing, before use. WT and genetically modified mice were subcutaneously injected with 2×10^5 B16 or 5×10^5 CT26 cells in the shaved right flank. […] For blocking of chemokine and chemokine receptors, WT mice were intraperitoneally injected with 100 μg of hamster a-mCXCR3 (clone CXCR3-173, BioLegend), 100 μg of hamster α-mCCR5 (clone HM-CCR5, BioLegend), 50 μg of rat anti-mCXCL10 (clone 134013, R&D systems) and 20 μg of rat-α-mCXCR4 (clone 2B11/CXCR4, BD Biosciences) or with respective isotype antibodies (hamster IgG (clone HTK888, BioLegend, used as control for mCXCR3 and mCCR5 blockage); rat IgG2a (clone 54447, R&D systems, used as control for mCXCL10 blockade) and rat IgG2b (clone A95-1, BD Biosciences, used as control for mCXCR4 blockade). […] For CXCL10 neutralization, antibodies were injected on day 2, 5, 8 and 11 after tumor cell injection. For immunotherapy protocols, mice were intraperitoneally injected with 100 μg of mouse α-CTLA-4 (clone 9D9, Bioxcell), 200 μg of PD1 (clone RMP1-14, Bioxcell), a combination of 100 μg of α-CTLA-4+200 μg of a-PD1 or control isotypes (100 μg […] and 200 μg rat IgG2a (clone 2A3), both from Bioxcell) on day 3, 6 and 9 after tumor cell implantation. For adoptive cell transfer experiments, Pmel-1 Thy-1.1^+Thy-1.1^+, Cxcr3^-/- Thy-1.1^+Thy-1.2^+ Pmel-1 or OT1 splenocytes were activated ex-vivo, by incubation with 1 nM of human gp100 (for Pmel-1 cells) or […] (for OT1 cells) peptides for 1h at room temperature with agitation. Splenocytes were then washed and resuspended in R10 supplemented with 30U/mL of recombinant human IL-2. CD8^+ T cells were expanded for 6-7 days before used. […] For analysis of tumor growth, activated OT1 cells were injected intravenously (1×10^5 cells per mouse) into gender matched tumor-bearing mice, 3 days after tumor cell injection. Tumor height and width were measured with a caliper and tumor volume was calculated (Elliptical volume=width^2×height×0.523). […] Lungs with more than 100 metastatic nodules were defined as 100.

B16F10 tumors = experiment: Histology of B16F10 tumors (CD31, CD3, H&E); assay type: in vivo, mouse; conditions: untreated vs sitagliptin-treated mice
Method: B16F10 tumors were dissected and fixed in JB fixative (zinc acetate 0.5%, zinc chloride 0.05%, and calcium acetate 0.05% in Tris buffer, pH 7) for 48 hours, prior to being embedded in low-melting point paraffin (Poly Ethylene Glycol Distearate; Sigma, USA). 5 μm thick paraffin sections were deparafinized in absolute ethanol, air dried, and routinely stained with hematoxylin-eosin or used for immunolabelling. For immunohistochemistry, the following primary antibodies were used: anti-CD3 (rabbit α-human, clone A0452, DAKO, Carpinteria, CA) and anti-CD31 (rat a-mouse, clone 1/75e, BD Pharmingen, Franklin Lake, NJ, USA). CD31 immunolabelled sections were digitalized using a Zeiss Axio Scan Z.1 at ×20. For histomorphometry of blood vessels, CD31 positive profiles were manually delineated on digitalized images, using the “area” tool of the Zen software (Zeiss) at a magnification of 30%. The whole tumor surface was also delineated in the same way at a magnification of 2%. Mean number of blood vessels per mm2 and mean vessel area were then calculated for each group of mice.

mCXCL10 = conditions: sitagliptin vs control
Method: Plates were washed twice with 300 μL of PBS. Blocking was done with BSA 1% (proteinase free, Gibco), in PBS for 2h at room temperature. Plates were washed 3 times with 300 μL of 0.05% Tween-20 in PBS. Tumor and plasma samples were diluted in BSA 1% and incubated for 2h, at room temperature. To obtain a standard curve, and to control for the cross-reactivity of the detection antibody, dilutions of recombinant mCXCL10 (Peprotech) or DPP4-digested mCXCL10(3-77) were incubated in parallel. For detection of mCXCL10(1-77), biotinylated α-mCXCL10(1-77) (AbDSerotec, 0.5 μg/ml, clone AbD17185.1), Streptavidin-HRP (BD Biosciences) and 1-STEP ULTRA TMB (Thermo Scientific) were used.
Enzymatic reactions were stopped with HCL 1N and plates were read with 450 nm in a Lab-systems […] MS (Thermo) reader. […] Detection of mDPP4, mCCL22 and mCXCL12 was done with the DUOSET® ELISA kit (R&D). Detection of mVEGF, mCCL2 and mCCL3 was done with a multiplex kit (Invitrogen).

DPP8 = DPP8 (Homo sapiens, UniProt Q6V1X1); conditions: Verspohl 2012; Huan et al. 2015; cited from earlier work
DPP8, sequence (Q6V1X1 whole entry, species assumed): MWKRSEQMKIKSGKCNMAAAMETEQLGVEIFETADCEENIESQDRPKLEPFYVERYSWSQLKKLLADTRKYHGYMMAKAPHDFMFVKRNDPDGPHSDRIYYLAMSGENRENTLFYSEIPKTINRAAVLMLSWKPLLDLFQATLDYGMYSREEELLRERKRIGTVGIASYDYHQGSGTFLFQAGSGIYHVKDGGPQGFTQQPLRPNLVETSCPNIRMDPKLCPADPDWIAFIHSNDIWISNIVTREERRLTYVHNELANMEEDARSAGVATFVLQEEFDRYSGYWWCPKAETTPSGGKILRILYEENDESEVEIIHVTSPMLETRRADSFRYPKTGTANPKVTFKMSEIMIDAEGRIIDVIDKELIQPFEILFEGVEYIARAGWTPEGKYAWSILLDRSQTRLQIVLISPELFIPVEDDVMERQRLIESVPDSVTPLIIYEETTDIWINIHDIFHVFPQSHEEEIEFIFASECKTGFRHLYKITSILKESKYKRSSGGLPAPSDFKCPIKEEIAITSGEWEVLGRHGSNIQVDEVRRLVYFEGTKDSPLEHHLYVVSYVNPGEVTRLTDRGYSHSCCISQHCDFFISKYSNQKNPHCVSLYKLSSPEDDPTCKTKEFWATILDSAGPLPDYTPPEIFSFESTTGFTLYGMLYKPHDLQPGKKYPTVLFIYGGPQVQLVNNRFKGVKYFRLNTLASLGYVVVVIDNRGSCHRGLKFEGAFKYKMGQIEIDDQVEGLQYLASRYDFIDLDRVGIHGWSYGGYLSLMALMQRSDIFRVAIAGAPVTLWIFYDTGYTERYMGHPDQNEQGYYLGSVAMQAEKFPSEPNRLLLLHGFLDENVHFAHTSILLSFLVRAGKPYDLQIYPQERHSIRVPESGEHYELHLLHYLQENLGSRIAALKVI

## N[C@@H](CC(=O)N1CCn2c(nnc2C(F)(F)F)C1)Cc1cc(F)c(F)cc1F [sitagliptin]
B16F10 melanoma; Cxcl10-/- mice, sitagliptin vs control
  B16F10 tumor growth in Cxcl10-/- mice: the delayed tumor growth achieved by DPP4 inhibition was absent
B16F10 melanoma; Cxcr3-/- mice, sitagliptin vs control
  B16F10 tumor growth in Cxcr3-/- mice: abrogated the delayed tumor growth
B16F10 melanoma; Dpp4-/- mice, sitagliptin vs control chow
  B16F10 tumor growth in Dpp4-/- mice: did not influence the kinetics of melanoma growth
B16F10 melanoma; Rag2-/- mice, sitagliptin vs control
  B16F10 tumor growth in Rag2-/- mice: the beneficial effects of DPP4 inhibition were lost
B16F10 melanoma; WT mice, sitagliptin vs control chow
  B16F10 tumor growth: reduced tumor growth
B16F10 melanoma; anti-mCXCR4 antibody, sitagliptin vs control
  B16F10 tumor growth with CXCR4 blocking in vivo: did not impact sitagliptin-mediated inhibition of tumor growth
B16F10 melanoma; loss of sitagliptin effect as in Cxcl10-/- mice
  B16F10 tumor growth in wild-type animals treated with CXCL10 blocking antibodies: confirmed
B16F10 melanoma; sitagliptin chow started 3, 5 or 7 days after tumor implantation
  growth of established B16F10 tumors: delay in tumor growth if sitagliptin was administrated within 5 days after tumor cell implantation
B16F10 tumors
  number and diameter of tumor blood vessels (CD31 staining): no difference in the number, nor the diameter of blood vessels
mCXCL10; CpG-A intravenously
  quantity of plasma mCCL2: higher
mCXCL10; WT mice, 5 μg CpG-A intravenously
  CpG-A-induced plasma total CXCL10: stabilization of CpG-A-induced plasma CXCL10
mCXCL10; WT mice, CpG-A intravenously
  quantity of plasma mCXCL10(1-77): significantly higher
DPP8
  effect on DPP8 activity: no effect
